In patent US5849777A, “Cell differentiation induction with mevalonate and mevalonolactone derivatives” (University of New Mexico, priority 1995, dated 1998):

Tested on: Canine glioma
Experiment: in vivo tumor inhibition: canine model
Set-up: species or system dog
Procedure: Canine glioma was implanted surgically into the brains of four outbred dogs (2×10^6 cells). This procedure normally causes death by tumor growth in 14-28 days.
[…] F) by I.P. injection in phosphate buffered saline.
Tumor progress was assessed at weekly intervals by NMR, employing GdDPTA as imaging agent. This method illuminates vascularization at the surface of the tumor, and provides images which correlate well with neuropathological observations.

| Structure (SMILES) | tumor status, later studies (10 μg/kg I.P. (data not shown)) | small tumor appeared on Day (pre-treated, 10 μg/kg I.P. M, W, F after implantation (FIG. 8)) [days] | tumor visible at Day (treatment begun on Day 11 (FIG. 9)) [days] |
| --- | --- | --- | --- |
| CC(C)c1nc(-c2ccccc2)n(-c2ccc(F)cc2)c1/C=C/[C@H](O)C[C@H](O)CC(=O)O [TF-002] | free of tumor | 12 |  |
| CC(C)c1c(/C=C/C(O)CC(O)CC(=O)O)n(-c2ccc(F)cc2)c2ccccc12 (stereo not drawn) [TF-004] |  |  | 10 |
